Results from patent publication US20190298702A1, “COMPOSITIONS AND METHODS FOR TREATING PRURITUS” (priority 2018, published 2019).
Counter-ions that a name gives are not always drawn. Like-named read-outs stand apart in the source and are kept apart here.

What was measured:
[1] = system: substance P-induced scratching; test: Mouse substance P-induced scratching model, subcutaneous SDE; assay type: in vivo; conditions: for substance P-induced scratching bouts: SC, 75 mg/mL oily formulation at 10 mL/kg, 30-minute observation
Method: The time-course and antipruritic effects of SDE via subcutaneous (SC) injection were studied in the mouse substance P-induced scratching model to evaluate the effect of SDE's antipruritic effect. In this study, SDE was dissolved in an oily formulation, with a concentration at 75 mg/mL.
Substance P, the endogenous ligand for the neurokinin-1 (NK-1) receptor, is a significant mediator of pruritus. […] Intradermal injection of substance P elicits an itch sensation in human subjects, and an associated itch response in mice.
(§1) Compared to the placebo control group, SDE (administered SC at 10 mL/kg) was associated with significant reduction of substance P-induced scratching behaviors at 4 hours (18.8±11.8 bouts) and 12 hours (24.5±4.1 bouts) post treatment. […] However, SC administration of SDE would cause high concentration of nalbuphine in the circulation and induce serious adverse effects.

[2] = assay type: physicochemical
Method: Individual excipients were investigated to determine their compatibility with SDE (at 50° C. for 2 and 4 weeks) for potential use in a topical formulation.

[3] = Adverse signs and mortality after SC administration of SDE; assay type: in vivo, mouse; conditions: SC at 10 mL/kg
Method: as §1

[4] = Ex vivo skin drug permeation and penetration, MedFlux-HT diffusion cell system; assay type: in vitro ADME, human
Method: The ten formulations listed in Table 7 were used to evaluate the penetration of drug into human skin using the MedFlux-HT™ diffusion cell system. In this study, human skins with about 500±50 μm thickness were fixed on the MedFlux-HT diffusion cell system. About 10 mg of test formulation was applied to the epidermal side of the human skin, and a continued flow of receiver fluid was place at the opposite side of the skin. Because SDE is rapidly converted into nalbuphine by the esterases in the biological environment, both nalbuphine and SDE concentration were measured to access the drug permeation status. The concentration of nalbuphine and SDE in receiver fluid indicated the amount of drug that had penetrated through the human skin.
Tissue levels of SDE and nalbuphine in the dermis and epidermis, and the amount of SDE and nalbuphine in the receiver fluids over 24 hours were determined and are shown in FIG. 1A and FIG. 1B. SDE and nalbuphine were both detected in receiver fluid, dermis, and epidermis. The cumulative amounts of SDE and nalbuphine in receiver fluid recovered at 24 hours were 89-1978 ng/cm^2 and 169-978 ng/cm^2, respectively.
These formulations were used to evaluate the penetration of drug into human skin using the MedFlux-HT™ diffusion cell system according to Example 8.

[5] = Whole blood concentration of nalbuphine after the scratching observation; assay type: in vivo; conditions: ICR, mouse, subcutaneous, 30 mg/kg, SC at 0.5 hour, read-out: effective systemic concentration of nalbuphine (whole blood)
Method: Immediately after the scratching observation of Example 11, whole blood was collected from each mouse via the vena cava, and the nalbuphine concentration in each sample was determined.
Immediately after the scratching observation of Example 14, whole blood was collected from each mouse via the vena cava, and the nalbuphine concentration in each sample was determined.

[6] = system: substance P-induced scratching; test: Mouse substance P-induced scratching model, topical application; assay type: in vivo; conditions: 30 mg/kg, SC, 0.5 hour post treatment
Method: Groups of 10 or 20 male ICR mice weighing 23±3 grams were used. One day before testing, hair was removed at the substance P injection sites. […] Substance P (250 nmol/site) was injected intradermally (ID) in a volume of 50 μL/site into the rostral portion of the back (the same region as test compound application). As reference, nalbuphine HCl was injected subcutaneously on the lower back region (different site as Substance P challenge). The scratching behavior was recorded for 30 minutes by visual observation immediately after substance P injection.
The time-course and antipruritic effects of the Ointment formulations via topical application were investigated in the mouse substance P-induced scratching model according to Example 11. On the testing day, the tested formulations (TA-1, TA-2, TA-3, and TA-4) were applied topically on the rostral portion of the back (2×2 cm region) at 4 hours prior to substance P challenge. 15 male ICR mice were used for each group. As reference, nalbuphine HCl was injected subcutaneously on the lower back region (different site as Substance P challenge). The scratching behavior was recorded for 30 minutes by visual observation immediately after substance P injection.

[7] = four ointment formulations of Table 13

## O=C(CCCCCCCCC(=O)Oc1ccc2c3c1O[C@H]1[C@@H](O)CC[C@@]4(O)[C@@H](C2)N(CC2CCC2)CC[C@]314)Oc1ccc2c3c1O[C@H]1[C@@H](O)CC[C@@]4(O)[C@@H](C2)N(CC2CCC2)CC[C@]314 [SDE, Sebacoyl Dinalbuphine Ester]
[1]; SC at 10 mL/kg, 24 hours
  suppressive effect on scratching responses: 45%
[1]; SC at 10 mL/kg, 48 hours
  attenuation of scratching responses: loss of activity
[1]; 4 hours post treatment
  substance P-induced scratching bouts: 18.8±11.8 bouts
[1]; 12 hours post treatment
  substance P-induced scratching bouts: 24.5±4.1 bouts
[2]; combination of BHT with Transcutol P compared to Transcutol P alone, 50° C.
  SDE degradation: reduce the degree of SDE degradation
[2]; in Castor oil, 50° C., 2 weeks
  SDE purity (%): 80.20%
[2]; in Castor oil, 50° C., 4 weeks
  SDE purity (%): 75.71%
[2]; in Castor oil, T = 0
  SDE purity (%): 100.00%
[2]; in Diisopropyl adipate, 50° C., 2 weeks
  SDE purity (%): 99.60%
[2]; in Diisopropyl adipate, 50° C., 4 weeks
  SDE purity (%): 99.49%
[2]; in Diisopropyl adipate, T = 0
  SDE purity (%): 100.00%
[2]; in Isopropyl myristate (IPM), 50° C., 2 weeks
  SDE purity (%): 99.51%
[2]; in Isopropyl myristate (IPM), 50° C., 4 weeks
  SDE purity (%): 85.75%
[2]; in Isopropyl myristate (IPM), T = 0
  SDE purity (%): 100.00%
[2]; in Miglyol 810 (Caprylic/Capric triglyceride), 50° C., 2 weeks
  SDE purity (%): 99.66%
[2]; in Miglyol 810 (Caprylic/Capric triglyceride), 50° C., 4 weeks
  SDE purity (%): 99.69%
[2]; in Miglyol 810 (Caprylic/Capric triglyceride), T = 0
  SDE purity (%): 100.00%
[2]; in PEG 400 (pH 4-5) + BHT, 50° C., 2 weeks
  SDE purity (%): 96.38%
[2]; in PEG 400 (pH 4-5) + BHT, 50° C., 4 weeks
  SDE purity (%): 93.24%
[2]; in PEG 400 (pH 4-5) + BHT, T = 0
  SDE purity (%): 98.31%
[2]; in PEG 400 (pH 4-5), 50° C., 2 weeks
  SDE purity (%): 94.01%
[2]; in PEG 400 (pH 4-5), 50° C., 4 weeks
  SDE purity (%): 96.97%
[2]; in PEG 400 (pH 4-5), T = 0
  SDE purity (%): 100.00%
[2]; in Super refined PEG 400 (pH 4-5), 50° C., 2 weeks
  SDE purity (%): 93.17%
[2]; in Super refined PEG 400 (pH 4-5), 50° C., 4 weeks
  SDE purity (%): 92.23%
[2]; in Super refined PEG 400 (pH 4-5), T = 0
  SDE purity (%): 100.00%
[2]; in Transcutol P + BHT, 50° C., 2 weeks
  SDE purity (%): 14.65%
[2]; in Transcutol P + BHT, 50° C., 4 weeks
  SDE purity (%): 4.21%
[2]; in Transcutol P + BHT, T = 0
  SDE purity (%): 96.90%
[2]; in Transcutol P, 50° C., 2 weeks
  SDE purity (%): 5.69%
[2]; in Transcutol P, 50° C., 4 weeks
  SDE purity (%): 1.50%
[2]; in Transcutol P, T = 0
  SDE purity (%): 94.31%
[2]; in deionized water (at both pH 4 and 5) and Transcutol P, 50° C. for 2 and 4 weeks
  change of SDE purity: Significant reductions
[2]; in water (pH 4), 50° C., 2 weeks
  SDE purity (%): 28.91%
[2]; in water (pH 4), 50° C., 4 weeks
  SDE purity (%): 14.47%
[2]; in water (pH 4), T = 0
  SDE purity (%): 96.61%
[2]; in water (pH 5), 50° C., 2 weeks
  SDE purity (%): 28.74%
[2]; in water (pH 5), 50° C., 4 weeks
  SDE purity (%): 5.43%
[2]; in water (pH 5), T = 0
  SDE purity (%): 96.83%
[3]
  adverse signs observed: signs of depression, tremor and hypothermia
[3]; 24 hours
  mortality rate: 7.7%
[3]; 48 hours
  mortality rate: 35.7%
[4]; [7]
  concentration of SDE in receiver fluid versus concentration of nalbuphine: comparable
  concentrations of SDE in dermis and epidermis versus concentrations of nalbuphine: much greater
[4]; ten formulations of Table 7
  concentration of SDE in receiver fluid versus concentration of nalbuphine: comparable
  concentrations of SDE in dermis and epidermis versus concentrations of nalbuphine: 10 fold

## Oc1ccc2c3c1O[C@H]1[C@@H](O)CC[C@@]4(O)[C@@H](C2)N(CC2CCC2)CC[C@]314 [nalbuphine HCl]
[5]
  concentration at 0.5 h: ~207 ng/mL
[6]; versus respective control (Example 11)
  substance P-evoked scratching behaviors: significantly reduced
[6]; versus respective control (Example 14)
  substance P-evoked scratching behaviors: significantly reduced
